Data published in ChEMBL document CHEMBL1149326, “Inhibitors of farnesyltransferase: a rational approach to cancer chemotherapy?” (J Med Chem, 2004).
Values belong to the compound of their own block, whether it stands above or below them.

Key:
[1] = test system: Rat1; experiment: Inhibition of H-ras-transformed Rat1 cells; type: functional, cell-based; details: Rattus norvegicus
[2] = target: T1, Protein farnesyltransferase (Homo sapiens, UniProt P49354+P49356); experiment: Inhibitory concentration against farnesyltransferase was determined; type: protein-complex assay
[3] = target: T2, Geranylgeranyl transferase type I (Homo sapiens, UniProt P49354+P53609); experiment: Inhibition binding constant Geranylgeranyl transferase type I; type: protein-complex assay
[4] = target: T1, Protein farnesyltransferase; experiment: Effective concentration required to inhibit HDJ2 farnesylation in PSN-1 cells; type: functional, cell-based
[5] = target: T1, Protein farnesyltransferase; experiment: Inhibition binding constant against Farnesyltransferase; type: protein-complex assay
[6] = target: T2, Geranylgeranyl transferase type I; experiment: Inhibition binding constant against Geranylgeranyl transferase type I; type: protein-complex assay
[7] = test system: NIH3T3; experiment: Inhibition of growth of H-ras-transformed 3T3 fibroblasts

SMILES: CC[C@@H](C)[C@@H](CO[C@@H](Cc1ccccc1)C(=O)N[C@@H](CCS(C)(=O)=O)C(=O)O)NC[C@@H](N)S
IC50 [2]: 1.8 nM

SMILES: N#Cc1ccc2cc1Oc1ccc3c(c1)[C@@H](CCC3)N1CC[C@@H](NCc3cncn3C2)C1=O
IC50 [2]: < 1 nM | EC50 [4]: 0.18 nM

SMILES: N#Cc1ccc2cc1Oc1ccc3cccc(c3c1)N1CCN(CC1=O)Cc1cncn1C2
IC50 [2]: 0.2 nM

Second part, led by results:

IC50 [1]: 630 nM
SMILES: CC[C@@H](C)[C@@H](CN(CC(=O)N[C@@H](CCSC)C(=O)OC)Cc1cccc2ccccc12)NC(=O)Cc1cncn1Cc1ccc(C#N)cc1

IC50 [3]: 54 nM
SMILES: COC(=O)[C@H](CC(C)C)NC(=O)c1ccc(NC[C@@H](N)CS)cc1-c1cccc2ccccc12

IC50 [2]: 24 nM
SMILES: O=C(c1ccccc1OC(F)(F)F)N1CCN(Cc2cnc[nH]2)c2ccc(-c3ccncc3)cc2C1

Ki [5]: < 1 nM | Ki [6]: 8 nM
SMILES: CSCC[C@H](NC(=O)c1cc(NC[C@@H]2C[C@H](SC(=O)c3cccnc3)CN2)ccc1CCc1ccc(F)cc1)C(=O)OC(C)C
IC50 [7]: 49 nM

IC50 [2]: 27000 nM
SMILES: CC(=O)N1CCC(=C2c3ccc(Cl)cc3CCc3cccnc32)CC1 [SCH-37370]
